In patent US8334248B2, “Aqueous solution of olanexidine, method of preparing the aqueous solution, and disinfectant” (Otsuka Pharmaceutical Co., Ltd., priority 2003, dated 2012):

Assay: Solubility in water
Assay type: physicochemical
From the text: Olanexidine has very poor solubility in water, and hitherto known salts of olanexidine are also poorly soluble in water. […] Consequently, sufficient bactericidal activity cannot be expected of an aqueous solution merely having olanexidine dissolved therein, and moreover, depending on the conditions the olanexidine may precipitate out.

CCCCCCCCNC(=N)NC(=N)NCc1ccc(Cl)c(Cl)c1 [free olanexidine, 1-(3,4-dichlorobenzyl)-5-octylbiguanide]
solubility in water relative to olanexidine hydrochloride (compared with less than 0.05% (W/V) of the hydrochloride): a further order of magnitude less than this

CCCCCCCCN=C(N)NC(N)=NCc1ccc(Cl)c(Cl)c1.Cl [olanexidine hydrochloride]
solubility in water (at 0° C.): less than 0.05 % (W/V)
